Tests used:
Test in all cases: relative viability (nuclei count vs DMSO), 5 days (fraction); higher = more cells survive
[1] = compound: CNC(=O)c1ccccc1Sc1ccc2c(/C=C/c3ccccn3)n[nH]c2c1 [Axitinib] + Cc1cc(Nc2cc(N3CCN(C)CC3)nc(Sc3ccc(NC(=O)C4CC4)cc3)n2)n[nH]1 [Tozasertib] (partner 0.1 µM)
Outline: (§1)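 Relative viability equals treated-well nuclei counts divided by vehicle-well nuclei counts. Counts came from 4× images of lung cancer cell lines grown in 1536-well plates for 5 days after pin-tool dosing on the day after seeding. Dosing used one drug alone or a fixed anchor-drug dose plus five library-drug doses (not always all listed) in √10 steps, and values are medians of duplicate plates.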

[2] = compound: CNC(=O)c1ccccc1Sc1ccc2c(/C=C/c3ccccn3)n[nH]c2c1 [Axitinib] + CCNC(=O)c1noc(-c2cc(C(C)C)c(O)cc2O)c1-c1ccc(CN2CCOCC2)cc1 [Luminespib] (partner 0.01 µM)
Outline: as §1

[3] = compound: Nc1nc(Nc2ccc3c(c2)CC[C@@H](N2CCCC2)CC3)nn1-c1cc2c(nn1)-c1ccccc1CCC2 [Bemcentinib] + NC(=O)Nc1cc(-c2cccc(F)c2)sc1C(=O)N[C@H]1CCCNC1 [AZD7762] (partner 0.2 µM)
Outline: as §1

[4] = compound: CC1=CC=C(C=C1)C(=O)CN2C3=C(CCCC3)SC2=N [Pifithrin_alpha] + Cc1cc(Nc2cc(N3CCN(C)CC3)nc(Sc3ccc(NC(=O)C4CC4)cc3)n2)n[nH]1 [Tozasertib] (partner 0.1 µM)
Outline: as §1

Cell Line	relative viability ([1]; first compound 0.005 µM)	relative viability ([1]; first compound 0.01581 µM)	relative viability ([1]; first compound 0.05 µM)	relative viability ([1]; first compound 0.1581 µM)	relative viability ([1]; first compound 0.5 µM)	relative viability ([2]; first compound 0.005 µM)	relative viability ([2]; first compound 0.01581 µM)	relative viability ([2]; first compound 0.05 µM)	relative viability ([2]; first compound 0.1581 µM)	relative viability ([2]; first compound 0.5 µM)	relative viability ([3]; first compound 0.04 µM)	relative viability ([3]; first compound 0.1265 µM)	relative viability ([3]; first compound 0.4 µM)	relative viability ([3]; first compound 1.265 µM)	relative viability ([3]; first compound 4 µM)	relative viability ([4]; first compound 1 µM)	relative viability ([4]; first compound 3.162 µM)	relative viability ([4]; first compound 10 µM)	relative viability ([4]; first compound 31.62 µM)	relative viability ([4]; first compound 100 µM)
NCI-H838	0.305	0.263	0.265	0.323	0.323	0.247	0.33	0.334	0.24	0.246	0.942	0.975	1.02	0.998	0.917	0.265	0.24	0.237	0.222	0.208
RERF-LC-KJ	0.458	0.485	0.535	0.573	0.52	1.23	1.2	1.17	1.21	1.42	0.996	0.957	0.967	0.982	0.888	0.498	0.412	0.308	0.253	0.289
NCI-H2405	0.773	0.795	0.853	0.785	1	0.863	0.809	0.839	0.779	0.866	0.744	0.875	0.887	0.819	0.605	0.708	0.697	0.573	0.573	0.627
PC-14	0.6		0.553	0.558	0.758	0.295		0.171	0.141	0.164	0.262	0.419	0.328	0.334	0.292		0.576	0.551	0.396	0.291
A-427	0.206	0.193	0.228	0.266	0.22	0.998	1.03	1.03	0.926	0.919	0.75	0.856	0.746	0.63	0.637	0.202	0.18	0.183	0.203	0.2
HCC-827	0.443	0.417	0.424	0.466	0.449	0.599	0.514	0.325	0.728	0.459	0.19	0.163	0.186	0.198	0.161	0.422	0.522	0.381	0.337	0.353
ABC-1	0.19	0.226	0.14	0.179	0.183	0.777	0.727	0.444		0.552		0.937	0.799	0.816	1.09	0.204	0.167	0.188	0.229	0.173
EPLC-272H	0.247	0.223	0.204	0.23	0.242	0.332	0.376	0.338	0.251	0.314	0.236	0.162	0.186	0.168	0.197	0.255	0.13	0.169	0.202	0.292
BEN	0.495	0.574	0.582	0.513	0.466	0.486	0.309	0.509	0.372	0.226	0.554	0.637	0.638	0.674	0.634		0.684	0.534	0.443	0.514
SW 900	0.84	0.572	0.571	0.639	0.642	0.167	0.162	0.159	0.185	0.18	0.559	0.65	0.689	0.552	0.538	0.53	0.358	0.372	0.27	0.364
LK-2	0.176	0.161	0.198	0.162	0.174	0.185	0.146	0.19	0.185	0.18	0.281	0.42	0.289	0.508	0.48	0.188	0.134	0.146		0.152
NCI-H2087	0.247	0.294	0.282	0.321	0.357	0.162	0.202	0.177	0.176	0.172	1.4	1.41	1.42	1.49	1.47	0.245	0.422	0.206		0.152
NCI-H2170	0.72	0.63	0.768	0.774	0.838	0.718	0.639	0.743	0.647	0.688	0.839	1.07	0.902	0.93	0.925	0.624	0.704	0.602	0.541	0.462
LCLC-103H	0.52	0.551	0.432	0.52	0.519	0.988	0.917	0.978	0.924	0.994	0.764	0.818	0.851	0.81	0.852	0.462	0.452	0.485	0.396	0.46
NCI-H441	0.746	0.585	0.658	0.789	0.796	0.305	0.325	0.313	0.456	0.576	1.33	1.29	1.1	1.41	1.29	0.483	0.652	0.401		0.451
LOU-NH91	0.682	0.54	0.746	0.694	0.827	0.325	0.377	0.379	0.349	0.331	0.423	0.77	0.791	0.806	0.799	0.663	0.612	0.637	0.543	0.578

From the supplement of paper PMC10307832
